The text below walks through data of patent US12187739B2, “Diaryl macrocycle polymorph” (TURNING POINT THERAPEUTICS, INC., priority 2015, dated 2025).

Each structure is given as a SMILES string.

The subject of assay [1] is KM 12 cells (harboring endogenous TPM3-TRKA fusion gene). In words: cells. To be noted: Homo sapiens, KM12, 72 h, read-out: KM 12 cell prolif. IC50 (nM). The method, then: Colorectal cell lines KM 12 (harboring endogenous TPM3-TRKA fusion gene) cells were cultured in DMEM medium, supplemented with 10% fetal bovine serum and 100 U/mL of penicillin/streptomycin. 5000 cells were seeded in 384 well white plate for 24 hours before compounds treatment. Cell proliferation was measured using CellTiter-Glo luciferase-based ATP detection assay (Promega) following the manufactures's protocol after 72 hours incubation. IC50 determinations were performed using GraphPad Prism software (GraphPad, Inc., San Diego, CA).
5000 cells were seeded in 384 well white plate for 24 hours before compounds treatment. Cell proliferation was measured using CellTiter-Glo luciferase-based ATP detection assay (Promega) following the manufactures's protocol after 72 hours incubation. IC50 determinations were performed using GraphPad Prism software (GraphPad, Inc., San Diego, CA).

For assay [2], the system named is Ba/F3-EML4-ALK wild type cell line. In words: EML4-ALK Ba/F3 stable cell line proliferation assay (CellTiter-Glo). The conditions noted are these: Ba/F3 cells with EML4-ALK wild-type (variant 1), 48 hours incubation; read-out: EML4-ALK Ba/F3 cell proli. IC50. In kind it is cell-based. On the procedure:
The EML4-ALK wild-type gene (variant 1) was synthesized at GenScript and cloned into pCDH-CMV-MCS-EF1-Puro plasmid (System Biosciences, Inc). Ba/F3-EML4-ALK wild type cell line was generated by infecting Ba/F3 cells with lentivirus containing EML4-ALK wide-type. Stable cell lines were selected by puromycin treatment, followed by IL-3 withdrawal. 5000 cells were seeded in 384 well white plate overnight before compound treatment.

Assay [3] has as its system SET-2 cells (harboring endogenous JAK2 V618F point mutation). In words: SET-2 cell proliferation assay (CellTiter-Glo). In kind it is cell-based. To be noted: Homo sapiens, SET-2 essential thrombocythemia cells, 72 hours incubation, read-out: SET2 cell proli. IC50.
Description: Essential thrombocythemia cell line SET-2 cells (harboring endogenous JAK2 V618F point mutation) or T cell lymphoma Karpas-299 cell line (harboring endogenous NPM-ALK fusion gene) were cultured in RPMI medium, supplemented with 10% fetal bovine serum and 100 U/mL of penicillin/streptomycin. 5000 cells were seeded in 384 well white plate for 24 hours before compounds treatment. Cell proliferation was measured using CellTiter-Glo luciferase-based ATP detection assay (Promega) following the manufactures's protocol after 72 hours incubation. IC50 determinations were performed using GraphPad Prism software (GraphPad, Inc., San Diego, CA).

Consider `C[C@H]1CNC(=O)c2cnn3ccc(nc23)N[C@H](C)c2cc(F)ccc2O1` [Compound I, (7S,13R)-11-fluoro-7,13-dimethyl-6,7,13,14-tetrahydro-1,15-ethenopyrazolo[4,3-f][1,4,8,10]benzoxatriazacyclotridecin-4(5H)-one], for which the IC50 was 0.5 nM in assay [1], 0.0211 µM in assay [2] and 0.242 µM in assay [3].
